# Measurements: patent US20020091086A1, “Peptides that block viral infectivity and methods of use thereof” (priority 1999, published 2002)
# Peptide text beside a SMILES is read from it.
# Assays:
# HIV-1 SF-2 virus = assay: combination of GPG-NH2 with AZT or Ritonavir in HUT78 cells, p24; format: cell-based
# HSV-1 = format: cell-based; conditions: concentrations up to 1 mM
# human mononuclear cells = assay: in vitro proliferative response of human mononuclear cells; format: cell-based; conditions: 20 μM
# Description: Next, the toxicity to normal human lymphomonocytic cells (PBMC) was examined. […] The effect of GPG-NH2 on in vitro proliferative response of human mononuclear cells was also tested.
# HUT78 = assay: cytotoxicity, trypan-blue dye exclusion and cell counting; conditions: 40 mM, 3 days of culture
# Description: (§1) The in vitro 50% cytotoxic concentrations (CC50) of various cell lines was also assessed. Accordingly, different concentrations of GPG-NH2, up to 40 mM, was supplemented into the medium culture of T-cell lines HUT78, H9, CEM-SS, MT-2 and (non) induced ACH-2, as well as, the macrophage derived cell lines […], THP-1 and (non) induced U-1 cells. After 3 days of incubation, the number of cells were counted.
# Jurkat-tat III = assay: as above; conditions: 40 mM, 3 days of culture
# Description: as §1
# MT-2 = assay: as above; conditions: 40 mM, 3 days of culture
# Description: as §1
# HIV-1 SF-2 virus strain = assay: stability in human blood and plasma by HIV-1 replication assay in HUT78 cells; format: in vitro ADME; conditions: incubated 1, 2 and 4 hours at 37° C. in human blood or plasma; final 20 μM or 100 μM; p24 day 7 and 14
# Description: This example describes several studies that were performed to access the stability of small peptides in human blood and plasma. Accordingly, human blood was taken freshly and treated with EDTA. Plasma was separated by centrifuging at 2,500 rpm for 20 minutes. GPG-NH2 was added into blood or plasma at concentrations of 10 mM or 50 mM followed by incubation in 37° C. for 1, 2 and 4 hours, respectively. […] After incubation in 37° C., the GPG-NH2 containing blood was centrifuged at 2,500 rpm for 20 minutes to isolate plasma. Some of the plasma samples were treated with CaCl2 at concentration of 5 mM in 37° C. for 10 minutes followed by centrifuging at 13,000 rpm for 30 minutes and the supernatant are referred to as CaCl2 treated plasma. Then all the GPG-NH2 containing plasma samples were diluted in RPMI medium to give the final concentrations 20 μM or 100 μM of GPG-NH2 (500 fold dilutions) and were then used in HIV-1 replication assays.
# The replication assays were performed on HUT78 cells and the HIV-1 SF-2 virus strain was used. Briefly, approximately 200,000 cells were resuspended in the diluted GPG-amide containing medium, plasma, or plasma from blood. The GPG-NH2 containing medium, plasma, or plasma from blood was incubated with the cells for either 1 hr, 2 hr, or 4 hr at 37° C. Subsequently, SF-2 virus was added at 25 TCID50. […]
# SF162 strain of HIV-1 = assay: antiviral activity of plasma of rats fed GPG-NH2 on infected PBMC, p24; format: cell-based; conditions: rat plasma diluted 1/5
# Description: For the assessment of biologically active GPG-NH2 in the plasma of animals fed the small peptide, plasma samples were prepared from blood obtained from the rats of the four week toxicology study the day after the last feeding. The plasma samples were diluted ⅕ in RPMI medium and were adminstered to PBMC infected with the SF162 strain of HIV-1, as described above. Viral infectivity was then monitored at seven, eleven, and fourteen days post infection by detecting the amount of p24 in the supernatent using a commercially available detection assay. (Abbott). […] In some cases, the administration of as little as 10 μM GPG-NH2 provided a sufficient concentration of small peptide in the plasma to enable the inhibition of HIV-1 replication. The percent reduction was calculated as in Table 6. The results from these experiments established that small peptides described herein can be maintained at concentrations in the body of an animal that are effective at inhibiting HIV replication.
# [1] = Exp. 1, day 7, Feeding GPG 10 (mg/ml)
# [2] = Exp. 1, day 7, Feeding GPG 30 (mg/ml)
# [3] = Exp. 1, day 7, Feeding GPG 100 (mg/ml)
# [4] = Exp. 1, day 14, Feeding GPG 10 (mg/ml)
# [5] = Exp. 1, day 14, Feeding GPG 30 (mg/ml)
# [6] = Exp. 1, day 14, Feeding GPG 100 (mg/ml)
# [7] = Exp. 2, day 7, Feeding GPG 10 (mg/ml)
# [8] = Exp. 2, day 7, Feeding GPG 30 (mg/ml)
# [9] = Exp. 2, day 7, Feeding GPG 100 (mg/ml)
# [10] = Exp. 2, day 14, Feeding GPG 10 (mg/ml)
# [11] = Exp. 2, day 14, Feeding GPG 30 (mg/ml)
# [12] = Exp. 2, day 14, Feeding GPG 100 (mg/ml)
# [13] = Exp. 3, day 14, Feeding GPG 10 (mg/ml)
# [14] = Exp. 3, day 14, Feeding GPG 30 (mg/ml)
# [15] = Exp. 3, day 14, Feeding GPG 100 (mg/ml)
# [16] = Exp. 3, day (number not given), Feeding GPG 10 (mg/ml)
# [17] = Exp. 3, day (number not given), Feeding GPG 30 (mg/ml)
# [18] = Exp. 3, day (number not given), Feeding GPG 100 (mg/ml)
# [19] = Exp. 4, day 11, Feeding GPG 10 (mg/ml)
# [20] = Exp. 4, day 11, Feeding GPG 30 (mg/ml)
# [21] = Exp. 4, day 11, Feeding GPG 100 (mg/ml)
# [22] = Exp. 5, day 7, Feeding GPG 10 (mg/ml)
# [23] = Exp. 5, day 7, Feeding GPG 30 (mg/ml)
# [24] = Exp. 5, day 7, Feeding GPG 100 (mg/ml)
compound,measurement,setting,value
"NCC(=O)N1CCC[C@H]1C(=O)NCC(N)=O [GPG-NH2, glycyl-prolyl-glycine amide] (H-Gly-Pro-Gly-NH2)",effect on inhibition of HIV-1 replication in the presence of AZT,HIV-1 SF-2 virus; combination with AZT,synergistically
same,antiviral effect together with Ritonavir,HIV-1 SF-2 virus; combination with Ritonavir,additive antiviral effect
same,HSV-1 replication,HSV-1,failed to reduce HSV-1 replication
same,anti-proliferative properties on T cells,human mononuclear cells,marginal if any direct anti-proliferative properties
same,function of accessory cells (monocytes and dendritic cells),human mononuclear cells,did not affect the function of accessory cells
same,inhibition of cell growth,HUT78,~40%
same,inhibition of cell growth,Jurkat-tat III,~40%
same,inhibition of cell growth,MT-2,~40%
same,"ability to inhibit HIV-1 after incubation in medium, plasma or blood",HIV-1 SF-2 virus strain,No significant difference
same,% reduction,SF162 strain of HIV-1; [1],82.8%
same,p24,SF162 strain of HIV-1; [1],93.3 pg/mL
same,% reduction,SF162 strain of HIV-1; [2],95.6%
same,p24,SF162 strain of HIV-1; [2],24.0 pg/mL
same,% reduction,SF162 strain of HIV-1; [3],67.8%
same,p24,SF162 strain of HIV-1; [3],174.7 pg/mL
same,% reduction,SF162 strain of HIV-1; [4],92.8%
same,p24,SF162 strain of HIV-1; [4],1636 pg/mL
same,% reduction,SF162 strain of HIV-1; [5],95.9%
same,p24,SF162 strain of HIV-1; [5],938 pg/mL
same,% reduction,SF162 strain of HIV-1; [6],59.4%
same,p24,SF162 strain of HIV-1; [6],9211 pg/mL
same,% reduction,SF162 strain of HIV-1; [7],31.9%
same,p24,SF162 strain of HIV-1; [7],219.2 pg/mL
same,% reduction,SF162 strain of HIV-1; [8],39.6%
same,p24,SF162 strain of HIV-1; [8],194.3 pg/mL
same,% reduction,SF162 strain of HIV-1; [9],46.1%
same,p24,SF162 strain of HIV-1; [9],173.5 pg/mL
same,% reduction,SF162 strain of HIV-1; [10],0%
same,p24,SF162 strain of HIV-1; [10],4760.8 pg/mL
same,% reduction,SF162 strain of HIV-1; [11],12.3%
same,p24,SF162 strain of HIV-1; [11],3574.4 pg/mL
same,% reduction,SF162 strain of HIV-1; [12],45.9%
same,p24,SF162 strain of HIV-1; [12],2203.7 pg/mL
same,% reduction,SF162 strain of HIV-1; [13],11.6%
same,p24,SF162 strain of HIV-1; [13],6700.6 pg/mL
same,% reduction,SF162 strain of HIV-1; [14],9.1%
same,p24,SF162 strain of HIV-1; [14],6893.0 pg/mL
same,% reduction,SF162 strain of HIV-1; [15],0%
same,p24,SF162 strain of HIV-1; [15],7578.4 pg/mL
same,% reduction,SF162 strain of HIV-1; [16],0%
same,p24,SF162 strain of HIV-1; [16],255.6 pg/mL
same,% reduction,SF162 strain of HIV-1; [17],41.7%
same,p24,SF162 strain of HIV-1; [17],107.3 pg/mL
same,% reduction,SF162 strain of HIV-1; [18],47.3%
same,p24,SF162 strain of HIV-1; [18],96.9 pg/mL
same,% reduction,SF162 strain of HIV-1; [19],29.8%
same,p24,SF162 strain of HIV-1; [19],170 pg/mL
same,% reduction,SF162 strain of HIV-1; [20],0%
same,p24,SF162 strain of HIV-1; [20],487.4 pg/mL
same,% reduction,SF162 strain of HIV-1; [21],78.6%
same,p24,SF162 strain of HIV-1; [21],51.7 pg/mL
same,% reduction,SF162 strain of HIV-1; [22],73.9%
same,p24,SF162 strain of HIV-1; [22],79.6 pg/mL
same,% reduction,SF162 strain of HIV-1; [23],0%
same,p24,SF162 strain of HIV-1; [23],439.3 pg/mL
same,% reduction,SF162 strain of HIV-1; [24],80.3%
same,p24,SF162 strain of HIV-1; [24],60 pg/mL
